SMILES strings stand for the structures.

In assay [1] the target is T1, cyclo-oxygenase contained in a microsomal preparation of seminal vesicles of a bull (Bos taurus, UniProt O62664).
T1 construct: cyclo-oxygenase contained in a microsomal preparation of seminal vesicles of a bull; from tissue; host or cells: bull seminal vesicles, microsomal preparation
T1 sequence (O62664 25-600): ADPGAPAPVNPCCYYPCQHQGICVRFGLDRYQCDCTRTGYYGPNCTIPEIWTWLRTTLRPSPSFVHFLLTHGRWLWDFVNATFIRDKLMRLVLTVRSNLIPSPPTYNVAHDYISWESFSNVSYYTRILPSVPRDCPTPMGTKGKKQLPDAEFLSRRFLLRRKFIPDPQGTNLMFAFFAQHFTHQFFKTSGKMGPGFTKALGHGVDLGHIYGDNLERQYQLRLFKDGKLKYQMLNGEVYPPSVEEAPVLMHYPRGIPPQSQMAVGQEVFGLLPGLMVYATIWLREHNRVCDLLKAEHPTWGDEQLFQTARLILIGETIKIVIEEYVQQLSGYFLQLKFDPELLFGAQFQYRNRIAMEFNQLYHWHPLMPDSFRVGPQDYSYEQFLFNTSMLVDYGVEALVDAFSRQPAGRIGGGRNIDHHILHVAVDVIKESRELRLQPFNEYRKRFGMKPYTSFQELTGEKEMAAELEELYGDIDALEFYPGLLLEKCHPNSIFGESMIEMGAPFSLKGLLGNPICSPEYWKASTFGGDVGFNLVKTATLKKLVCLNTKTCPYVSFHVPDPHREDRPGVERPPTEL
Description: Action on biosynthesis of prostaglandins in vitro. It counts as biochemical. Particulars: arachidonic acid 15×10^-6 M, incubated 30 minutes at 37° C., radioimmuno test; read-out: CI50, inhibiting activity calculated on the sum of PGE2 and PGF2 alpha. Here is the method:
A. Action on biosynthesis of prostaglandins in vitro.
Arachidonic acid is converted into prostaglandins (PGs) of series 2 by a cyclo-oxygenase contained in a microsomal preparation of seminal vesicles of a bull carried out according to the Tagekuchi et al method [Mechanism of prostaglandin biosynthesis. I characterization and essay of bovine prostaglandin synthetase. Biochemistry, 1971, 10, 2372]. The precursor, at […] of 15×10^-6 M, was incubated for 30 minutes at 37° C. in the presence of a fixed concentration in proteins of the preparation of seminal vesicles and of the product of Example 1. After blocking the reaction by immersion in boiling water for one minute, then centrifuging, the prostaglandins were evaluated by radioimmuno test inspired by that of Dray et al [Radioimmunoessay of prostaglandins F, E1 and E2 in human plasma. European J. Clin. Invest., 1975 5, 311]. This enabled the PGE2 and PGF2 alpha to be evaluated specifically and the inhibiting activity of the product (CI50) is calculated on the sum of these two prostaglandins. The CI50 found was 2×10^ -6 M.

The test system of assay [2] is arthritis induced by carrageenin in rats. Description: Anti-inflammatory activity: arthritis induced by carrageenin. Conditions: Rattus norvegicus, po; male rats, orally, simultaneously with carrageenin in the tibio-tarsal articulation, paw volume; read-out: DA50, dose giving a decrease in the oedema of 50%. In kind it is in vivo. How it is done: C. Anti-inflammatory activity was determined by the test for arthritis induced by carrageenin in rats and 0.5 ml of a sterile suspension at 1% of carrageenin was administered in the tibio-tarsal articulation of a back paw in male rats weighing from 130 to 150 g. Simultaneously, the product of Example 1 was orally administered in a suspension of carboxymethylcellulose at 0.25% and of Tween at 0.02%. The volume of the paw was measured before the administration, then 2 hours, 4 hours, 6 hours, 8 hours and 24 hours afterwards. The intensity of the inflammation was at its highest 4 to 6 hours after the injection of carrageenin and the difference in volume of the paws of the treated animals and the control animals was evidence of the anti-inflammatory action of the medicament. The DA50 was determined, which was the dose which enabled a decrease in the oedema of 50% to be obtained.

Assay [3] concerns stretchings induced by acetic acid in mice. Description: Analgesic activity: stretchings induced by acetic acid. It counts as in vivo. Conditions: Mus musculus, po, 0.25 h, orally half an hour before i.p. acetic acid 100 mg/kg, observation 15 minutes, read-out: DA50, dose giving a decrease of 50% in the number of stretchings. Here is the method:
B. Study of analgesic activity
The test used was stretchings induced by acetic acid described by R. Koster et al [Fed. Proc. 1959, 1B 412] according to which the intraperitoneal injection of acetic acid induces in mice repeated stretchings and torsional movements which can persist for more than 6 hours. Analgesics prevent or decrease this syndrome which can considered as the externalization of a diffuse abdominal pain. The acetic acid was administered at a dose of 100 mg/kg or 1 ml of a 1% aqueous solution per 100 g of body weight and the compound of Example 1 was orally administered half an hour before the injection of acetic acid, the mice having been without food for 7 hours. The stretchings were observed and counted for each mouse for a period of observation of 15 minutes and the results were expressed as active dose 50 which is the dose which enabled a decrease of 50% to be obtained in the number of stretchings in comparison with the control animals. The DA50 found was 4 mg/kg.

With `COc1ccc(-c2nnc3n2-c2ccccc2C(C)=NC3C)cc1` (stereo not drawn) [Example 1, 4,6-dimethyl-1-(4-methoxyphenyl)-4H-1,2,4-triazolo[4,3-a][1,4]benzodiazepine], the IC50 in assay [1] was 2000 nM. For the same compound, the ED50 stood at 50 mg/kg in assay [2] and 4 mg/kg in assay [3].

The values are drawn from patent US4987131A, “4H-triazolo[4,3-a][1,4]benzodiazepines” (Roussel Uclaf, priority 1985, dated 1991).
